IC50 data for 14 molecules are collected here from patent US12421208B2, “Chemical compounds” (ASTRAZENECA AB, priority 2020, dated 2025).

Each structure is given as a SMILES string.

For one experiment, the system named is DLD1 cells. Description: PARP proliferation assay (7 day compound dosing), WT DLD1. The experiment is classed as cell-based. Conditions: Homo sapiens, 168 h; WT DLD-1 cells, 7 day dosing; read-out: WT DLD-1 prolif. 7 d IC50. As for the experimental part:
(§1) PARP Proliferation Assay (7 Day Compound Dosing)
(§2) DLD1 and BRCA2 (−/−) DLD1 cells were harvested to a density of 5000 cells/ml and 2.5E4 cells/ml respectively in complete media, 40 μL/well seeded into 384-well plates (Greiner, Kremsmunster, Austria; 781090) using a Multidrop Combi then incubated at 37° C., 5% CO2 overnight. Next day (Day 1) using a Multidrop Combi add sytoxgreen (5 ul, 2 uM) and saponin (10 ul, 0.25% stock) to a day 0 plate, seal the plate using a black adhesive lid and incubate for >3 h at rt. Cells were imaged using Cell Insight (Thermo Fisher) fitted with a 4× objective. Test compounds are added using an Echo 555 and placed in incubator maintained at 37° C., 5% CO2 and incubated for 7 days. On Day 8 add sytox green (5 ul, 2 uM) and then saponin (10 ul, 0.25% stock) to plates, seal the plate using a black adhesive lid and incubate for >3 h at rt. Read all cells on the Cell Insight with 4× Objective. The rate of proliferation is determined in Genedata by assessing the total cell number output from the Cell Insight for Day 0 and Day 8 plates.

In a further experiment the test system is BRCA2 (−/−) DLD1 cells. In words: PARP proliferation assay (7 day compound dosing), BRCA2 (−/−) DLD1. The experiment is classed as cell-based. Conditions: Homo sapiens, DLD-1, 168 h, BRCA2 −/− DLD-1 cells, 7 day dosing; read-out: BRCA2 −/− DLD-1 prolif. 7 d IC50. As for the experimental part:
as §1, §2

A further experiment addresses T1, PARP2 (Homo sapiens, UniProt Q9UGN5).
T1 construct: Recombinant full length PARP2 protein
In words: PARP fluorescence anisotropy binding assay, PARP2. Conditions: recombinant full length PARP2. As for the experimental part: (§3) PARP Fluorescence Anisotropy Binding Assays
Recombinant full length PARP2 protein was diluted to 6 nM with 50 mM Tris pH 8, 0.001% Triton X100, 10 mM MgCl2, 150 mM NaCl and incubated for four hours with an equivalent volume of 2 nM fluorescent probe diluted with 50 mM Tris pH 8, 0.001% Triton X100, 10 mM MgCl2, 150 mM NaCl. The final DMSO concentration of the probe was kept below 1% (v/v).
Fluorescence anisotropy of the probe when bound to the proteins was measured using a BMG Pherastar FSX© in the presence of test compounds or solvent control and the effect on anisotropy determined. % inhibition values for different test compound concentrations were calculated and fitted to a four parameter logistic plot in order to determine the IC50 value.
(Polarisation of emitted light reports the rotation of a fluorescent probe.)

Another experiment addresses hERG (Homo sapiens, UniProt Q12809). Description: hERG inhibition. An excerpt: It is well known that blockade of the cardiac ion channel coded by human ether-n-gogo-related gene (hERG) is a risk factor in drug discovery and development. Blockage of hERG can cause safety problems such as cardiac arrhythmia. Advantageously, the compounds of Formula I have low hERG activity.
For orientation: Block of hERG is tested as a sign of cardiac risk.

A further experiment deals with T2, PARP6 (Homo sapiens, UniProt Q2NL67).
T2 construct: Recombinant full length GST tagged PARP6 protein; GST
T2 sequence (Q2NL67 whole entry): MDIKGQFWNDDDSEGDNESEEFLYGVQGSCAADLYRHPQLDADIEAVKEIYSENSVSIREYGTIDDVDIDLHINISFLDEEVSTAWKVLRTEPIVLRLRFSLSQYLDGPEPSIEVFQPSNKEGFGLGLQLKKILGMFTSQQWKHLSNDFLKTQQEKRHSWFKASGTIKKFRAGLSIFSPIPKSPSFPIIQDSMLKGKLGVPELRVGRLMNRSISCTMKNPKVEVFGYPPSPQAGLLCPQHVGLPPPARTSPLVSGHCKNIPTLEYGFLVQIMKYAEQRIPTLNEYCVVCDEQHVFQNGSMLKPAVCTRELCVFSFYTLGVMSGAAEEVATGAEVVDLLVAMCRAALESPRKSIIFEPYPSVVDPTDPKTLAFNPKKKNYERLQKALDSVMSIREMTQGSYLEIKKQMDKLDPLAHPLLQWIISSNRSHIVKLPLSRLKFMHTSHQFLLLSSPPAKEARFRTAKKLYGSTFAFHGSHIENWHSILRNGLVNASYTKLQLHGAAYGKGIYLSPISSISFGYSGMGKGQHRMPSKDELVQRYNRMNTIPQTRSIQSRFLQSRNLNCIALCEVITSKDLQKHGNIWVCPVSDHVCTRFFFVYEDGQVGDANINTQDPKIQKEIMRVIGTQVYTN
Description: PARP fluorescence anisotropy binding assay, PARP6. The conditions noted are these: recombinant full length GST tagged PARP6. How it is done:
as §3
Recombinant full length GST tagged PARP6 protein was diluted to 160 nM with 50 mM Tris pH 8, 0.001% Triton X100, 10 mM MgCl2, 150 mM NaCl and incubated for four hours with an equivalent volume of 6 nM fluorescent probe diluted with 50 mM Tris pH 8, 0.001% Triton X100, 10 mM MgCl2, 150 mM NaCl. The final DMSO concentration of the probe was kept below 1% (v/v).
Fluorescence anisotropy of the probe when bound to the proteins was measured using a BMG Pherastar FSX© in the presence of test compounds or solvent control and the effect on anisotropy determined. % inhibition values for different test compound concentrations were calculated and fitted to a four parameter logistic plot in order to determine the IC50 value. Where necessary, the compound Ki can be determined from the IC50 value using a Munson Rodbard equation defined in Anal Biochem. 1980 Sep. 1; 107(1):220-39 and is based on the known KD of the probe binding to the relevant PARP protein

In another experiment the target is PARP5a (Homo sapiens, UniProt O95271). Description: PARP fluorescence anisotropy binding assay, PARP5a binding domain. Conditions: recombinant PARP5a binding domain.
Sequence of PARP5a (O95271 1112-1317): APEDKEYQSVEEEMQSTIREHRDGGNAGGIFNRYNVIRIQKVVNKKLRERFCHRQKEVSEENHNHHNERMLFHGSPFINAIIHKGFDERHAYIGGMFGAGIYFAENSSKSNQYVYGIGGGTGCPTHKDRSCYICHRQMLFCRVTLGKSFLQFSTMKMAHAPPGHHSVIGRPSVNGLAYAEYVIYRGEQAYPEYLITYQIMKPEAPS
Source text: as §3

A further experiment deals with T3, PARP3 (Homo sapiens, UniProt Q9Y6F1).
T3 construct: Recombinant full length PARP3 protein
T3 sequence (Q9Y6F1 1-533): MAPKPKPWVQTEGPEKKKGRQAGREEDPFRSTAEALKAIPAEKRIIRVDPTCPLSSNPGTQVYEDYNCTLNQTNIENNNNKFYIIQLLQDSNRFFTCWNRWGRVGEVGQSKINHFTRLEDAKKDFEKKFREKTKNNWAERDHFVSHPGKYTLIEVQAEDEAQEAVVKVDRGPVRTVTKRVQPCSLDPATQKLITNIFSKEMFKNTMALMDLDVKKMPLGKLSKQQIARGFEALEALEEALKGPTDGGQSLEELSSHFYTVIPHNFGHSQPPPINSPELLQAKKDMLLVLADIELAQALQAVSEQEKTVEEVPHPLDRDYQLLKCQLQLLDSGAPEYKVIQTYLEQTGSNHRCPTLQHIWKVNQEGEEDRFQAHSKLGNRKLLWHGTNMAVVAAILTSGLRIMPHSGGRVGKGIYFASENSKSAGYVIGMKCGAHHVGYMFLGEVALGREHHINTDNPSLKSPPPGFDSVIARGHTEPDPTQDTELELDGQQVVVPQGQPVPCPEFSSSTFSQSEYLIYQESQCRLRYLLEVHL
Description: PARP fluorescence anisotropy binding assay, PARP3. The conditions noted are these: recombinant full length PARP3.
Source text: as §3

Sequence of hERG (Q12809 whole entry): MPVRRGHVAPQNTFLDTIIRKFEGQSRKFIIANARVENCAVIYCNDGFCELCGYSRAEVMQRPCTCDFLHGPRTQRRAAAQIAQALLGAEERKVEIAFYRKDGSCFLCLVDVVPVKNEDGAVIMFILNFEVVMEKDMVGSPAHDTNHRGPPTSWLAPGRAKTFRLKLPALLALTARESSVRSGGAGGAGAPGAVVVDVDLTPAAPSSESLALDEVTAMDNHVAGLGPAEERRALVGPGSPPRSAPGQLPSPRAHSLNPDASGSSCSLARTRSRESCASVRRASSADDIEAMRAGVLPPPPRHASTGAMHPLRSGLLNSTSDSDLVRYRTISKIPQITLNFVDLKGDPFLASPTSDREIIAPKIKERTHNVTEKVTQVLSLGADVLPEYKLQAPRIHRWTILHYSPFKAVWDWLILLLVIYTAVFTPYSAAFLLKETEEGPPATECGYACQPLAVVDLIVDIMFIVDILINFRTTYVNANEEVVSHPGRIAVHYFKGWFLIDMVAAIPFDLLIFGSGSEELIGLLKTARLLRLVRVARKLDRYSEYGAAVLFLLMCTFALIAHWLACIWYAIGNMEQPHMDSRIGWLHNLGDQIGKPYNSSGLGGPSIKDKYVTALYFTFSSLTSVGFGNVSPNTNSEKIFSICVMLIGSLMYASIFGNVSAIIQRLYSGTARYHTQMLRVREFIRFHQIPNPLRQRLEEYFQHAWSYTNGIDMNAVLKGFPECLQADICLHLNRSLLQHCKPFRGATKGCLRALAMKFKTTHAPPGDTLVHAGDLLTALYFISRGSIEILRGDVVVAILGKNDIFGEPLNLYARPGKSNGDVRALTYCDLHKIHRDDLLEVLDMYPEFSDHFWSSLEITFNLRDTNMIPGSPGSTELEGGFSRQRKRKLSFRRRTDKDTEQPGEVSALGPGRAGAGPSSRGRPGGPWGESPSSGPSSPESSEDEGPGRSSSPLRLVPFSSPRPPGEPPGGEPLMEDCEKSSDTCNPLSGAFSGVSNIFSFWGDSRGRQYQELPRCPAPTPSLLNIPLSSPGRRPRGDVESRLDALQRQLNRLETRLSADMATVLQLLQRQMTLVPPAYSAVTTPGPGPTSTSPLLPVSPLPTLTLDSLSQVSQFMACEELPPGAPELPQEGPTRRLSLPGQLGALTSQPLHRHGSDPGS
T1 sequence (Q9UGN5 whole entry): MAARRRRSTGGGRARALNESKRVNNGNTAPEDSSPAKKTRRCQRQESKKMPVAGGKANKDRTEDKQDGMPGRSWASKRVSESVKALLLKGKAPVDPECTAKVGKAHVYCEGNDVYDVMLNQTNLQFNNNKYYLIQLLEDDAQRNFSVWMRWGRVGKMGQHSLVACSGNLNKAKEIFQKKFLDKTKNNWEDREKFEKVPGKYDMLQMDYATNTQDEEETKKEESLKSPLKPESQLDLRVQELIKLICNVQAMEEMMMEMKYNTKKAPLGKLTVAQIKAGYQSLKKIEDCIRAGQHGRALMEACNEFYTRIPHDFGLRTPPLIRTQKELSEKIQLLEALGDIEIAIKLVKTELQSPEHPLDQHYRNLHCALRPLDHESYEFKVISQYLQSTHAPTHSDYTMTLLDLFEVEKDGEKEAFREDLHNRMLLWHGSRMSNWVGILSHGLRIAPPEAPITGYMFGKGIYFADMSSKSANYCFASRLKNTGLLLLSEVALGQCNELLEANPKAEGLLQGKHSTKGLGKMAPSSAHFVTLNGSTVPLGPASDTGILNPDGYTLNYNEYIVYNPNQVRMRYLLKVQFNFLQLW

For `CCc1nc2ccc(CN3CCN(c4ccc(C(=O)NC)nc4C)CC3)c(Cl)c2[nH]c1=O` [Example 11, 5-[4-[(5-chloro-2-ethyl-3-oxo-4H-quinoxalin-6-yl)methyl]piperazin-1-yl]-N,6-dimethyl-pyridine-2-carboxamide], the IC50 with DLD1 cells was more than 30 µM; with BRCA2 (−/−) DLD1 cells, 0.009 µM; on PARP2, more than 100 µM; on hERG, more than 40 µM; on PARP6 it was more than 100 µM; at PARP5a it was more than 100 µM. Further, the IC50 at PARP3 was more than 100 µM.
For `CNC(=O)c1ccc(N2CCN(Cc3ccc4nc(C)c(=O)[nH]c4c3Cl)CC2)c(C)n1` [Example 18, 5-[4-[(5-chloro-2-methyl-3-oxo-4H-quinoxalin-6-yl)methyl]piperazin-1-yl]-N,6-dimethyl-pyridine-2-carboxamide], the IC50 in the experiment on DLD1 cells is 21 µM; in the experiment with BRCA2 (−/−) DLD1 cells, 4.33 µM; on PARP2, more than 100 µM; at PARP6, more than 100 µM; on PARP5a, more than 100 µM; on PARP3, more than 100 µM.
For `CCc1nc2ccc(CN3CCN(c4ccc(C(=O)NC)nc4F)CC3)c(Cl)c2[nH]c1=O` [Example 9, 5-[4-[(5-chloro-2-ethyl-3-oxo-4H-quinoxalin-6-yl)methyl]piperazin-1-yl]-6-fluoro-N-methyl-pyridine-2-carboxamide], the IC50 is more than 10 µM in the experiment on DLD1 cells; 0.01 µM with BRCA2 (−/−) DLD1 cells; more than 100 µM at PARP2; more than 40 µM against hERG; more than 100 µM on PARP6; more than 100 µM on PARP5a. The IC50 on PARP3 was more than 100 µM.
`CCc1nc2ccc(CN3CCN(c4ccc(C(=O)NC)nc4)CC3)c(F)c2[nH]c1=O` [Example 29, 5-[4-[(2-ethyl-5-fluoro-3-oxo-4H-quinoxalin-6-yl)methyl]piperazin-1-yl]-N-methyl-pyridine-2-carboxamide]: the IC50 in the experiment with DLD1 cells is more than 10 µM; in the experiment with BRCA2 (−/−) DLD1 cells, 0.005 µM; on hERG, more than 40 µM.
Turning to `CCc1nc2ccc(CN3CCN(c4ccc(C(=O)NC)nc4Cl)CC3)c(Cl)c2[nH]c1=O` [Example 8, 6-chloro-5-[4-[(5-chloro-2-ethyl-3-oxo-4H-quinoxalin-6-yl)methyl]piperazin-1-yl]-N-methyl-pyridine-2-carboxamide], the IC50 with DLD1 cells is more than 7.9 µM; in the experiment on BRCA2 (−/−) DLD1 cells it was 0.012 µM; at PARP2, more than 66 µM; on hERG, more than 40 µM; on PARP6, more than 100 µM; on PARP5a, more than 100 µM. Moreover, on PARP3, the IC50 is more than 100 µM.
For the molecule `CCc1nc2ccc(CN3CCN(c4ccc(C(=O)NC)nc4C)CC3)c(F)c2[nH]c1=O` [Example 23, 5-[4-[(2-ethyl-5-fluoro-3-oxo-4H-quinoxalin-6-yl)methyl]piperazin-1-yl]-N,6-dimethyl-pyridine-2-carboxamide], the IC50 with DLD1 cells is more than 30 µM; in the experiment on BRCA2 (−/−) DLD1 cells, 0.003 µM; against hERG, more than 40 µM.
As to `CNC(=O)c1ccc(N2CCN(Cc3ccc4nc(C)c(=O)[nH]c4c3C)CC2)c(Cl)n1` [Example 3, 6-chloro-5-[4-[(2,5-dimethyl-3-oxo-4H-quinoxalin-6-yl)methyl]piperazin-1-yl]-N-methyl-pyridine-2-carboxamide], the IC50 with DLD1 cells is 25 µM; with BRCA2 (−/−) DLD1 cells, 0.008 µM; against hERG, more than 40 µM.
In the case of `CNC(=O)c1ccc(N2CCN(Cc3ccc4nc(C)c(=O)[nH]c4c3C)CC2)c(C)n1` [Example 4, 5-[4-[(2,5-dimethyl-3-oxo-4H-quinoxalin-6-yl)methyl]piperazin-1-yl]-N,6-dimethyl-pyridine-2-carboxamide], the IC50 with DLD1 cells was more than 14 µM; in the experiment on BRCA2 (−/−) DLD1 cells, 0.081 µM; against hERG, more than 40 µM.
Consider `CNC(=O)c1ccc(N2CCN(Cc3ccc4nc(C)c(=O)[nH]c4c3Cl)CC2)cn1` [Example 16, 5-[4-[(5-chloro-2-methyl-3-oxo-4H-quinoxalin-6-yl)methyl]piperazin-1-yl]-N-methyl-pyridine-2-carboxamide], for which the IC50 is more than 30 µM with DLD1 cells; 3.62 µM in the experiment with BRCA2 (−/−) DLD1 cells; more than 100 µM on PARP2; more than 40 µM against hERG; more than 100 µM on PARP6; more than 29 µM on PARP5a. For the same molecule, the IC50 on PARP3 is more than 100 µM.
Take `CNC(=O)c1ccc(N2CCN(Cc3ccc4nc(C)c(=O)[nH]c4c3C)CC2)c(F)n1` [Example 1, 5-[4-[(2,5-dimethyl-3-oxo-4H-quinoxalin-6-yl)methyl]piperazin-1-yl]-6-fluoro-N-methyl-pyridine-2-carboxamide]: the IC50 with DLD1 cells is 24 µM; in the experiment on BRCA2 (−/−) DLD1 cells, 0.014 µM; at hERG it was more than 40 µM.
Regarding `CNC(=O)c1ccc(N2CCN(Cc3ccc4nc(C(F)(F)F)c(=O)[nH]c4c3F)CC2)c(F)n1` [Example 48, 6-fluoro-5-[4-[[5-fluoro-3-oxo-2-(trifluoromethyl)-4H-quinoxalin-6-yl]methyl]piperazin-1-yl]-N-methyl-pyridine-2-carboxamide], the IC50 in the experiment with DLD1 cells was 27 µM; in the experiment on BRCA2 (−/−) DLD1 cells it was 0.018 µM; on hERG it was more than 40 µM.
For the molecule `CNC(=O)c1ccc(N2CCN(Cc3ccc4nc(C)c(=O)[nH]c4c3F)CC2)c(F)n1` [Example 20, 6-fluoro-5-[4-[(5-fluoro-2-methyl-3-oxo-4H-quinoxalin-6-yl)methyl]piperazin-1-yl]-N-methyl-pyridine-2-carboxamide], the IC50 against hERG was more than 40 µM; at PARP6 it was more than 100 µM; at PARP5a it was more than 100 µM; at PARP3, more than 100 µM.
For the molecule `CNC(=O)c1ccc(N2CCN(Cc3ccc4nc(C)c(=O)[nH]c4c3F)CC2)cn1` [Example 32, 5-[4-[(5-fluoro-2-methyl-3-oxo-4H-quinoxalin-6-yl)methyl]piperazin-1-yl]-N-methyl-pyridine-2-carboxamide], the IC50 in the experiment on DLD1 cells was 23 µM; in the experiment on BRCA2 (−/−) DLD1 cells it was 1.08 µM; against hERG it was more than 40 µM.
In the same order, the values of `CCc1nc2ccc(CN3CCN(c4ccc(C(=O)NC)nc4C(F)F)CC3)c(F)c2[nH]c1=O` [Example 24, 6-(difluoromethyl)-5-[4-[(2-ethyl-5-fluoro-3-oxo-4H-quinoxalin-6-yl)methyl]piperazin-1-yl]-N-methyl-pyridine-2-carboxamide] are more than 30 µM, 0.003 µM and more than 36 µM.
